Values of other authors as cited in patent US5597804A, “N-sulfonylarginine keto-amide compounds” (Corvas International, Inc., priority 1993, dated 1997).

Legend:
Settings in all cases: reported by Ocain et al.; read-out: inhibitor constant
[1] = target: arginyl aminopeptidase
[2] = target: cytosol aminopeptidase
[3] = target: T1, microsomal aminopeptidase (Sus scrofa, UniProt P15145)
T1 sequence (P15145 1-963): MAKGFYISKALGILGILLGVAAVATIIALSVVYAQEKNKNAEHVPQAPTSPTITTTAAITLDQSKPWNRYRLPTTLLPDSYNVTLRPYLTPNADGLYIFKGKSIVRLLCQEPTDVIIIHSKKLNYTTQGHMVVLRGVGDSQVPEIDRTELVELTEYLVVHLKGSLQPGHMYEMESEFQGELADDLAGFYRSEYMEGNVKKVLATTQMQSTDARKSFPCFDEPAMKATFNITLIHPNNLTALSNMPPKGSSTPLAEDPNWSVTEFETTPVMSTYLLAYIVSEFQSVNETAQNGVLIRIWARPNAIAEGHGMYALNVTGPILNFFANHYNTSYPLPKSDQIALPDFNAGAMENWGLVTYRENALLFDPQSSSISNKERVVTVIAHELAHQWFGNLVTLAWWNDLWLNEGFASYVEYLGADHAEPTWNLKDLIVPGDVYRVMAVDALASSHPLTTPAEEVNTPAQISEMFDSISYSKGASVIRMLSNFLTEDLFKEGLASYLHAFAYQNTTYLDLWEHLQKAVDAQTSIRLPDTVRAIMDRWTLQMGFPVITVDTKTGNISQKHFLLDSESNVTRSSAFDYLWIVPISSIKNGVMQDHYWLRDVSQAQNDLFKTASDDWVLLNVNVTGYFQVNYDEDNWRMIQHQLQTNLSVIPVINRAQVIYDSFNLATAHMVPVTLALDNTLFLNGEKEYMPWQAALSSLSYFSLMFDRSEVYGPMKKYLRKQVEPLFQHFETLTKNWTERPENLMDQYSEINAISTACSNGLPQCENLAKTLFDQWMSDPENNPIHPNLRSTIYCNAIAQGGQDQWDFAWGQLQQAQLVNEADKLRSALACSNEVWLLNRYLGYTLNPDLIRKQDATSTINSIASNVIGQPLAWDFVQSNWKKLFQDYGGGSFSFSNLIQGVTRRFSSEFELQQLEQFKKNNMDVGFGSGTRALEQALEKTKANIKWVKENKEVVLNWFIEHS

Q: Which Ki [1] does the source give for `NC(=O)C(=O)C(N)Cc1ccccc1` (stereo not drawn) [3-Amino-2-oxo-4-phenylbutanoic acid amide] here?
A: 1500 µM

Q: And the Ki [2]?
A: 1000 µM

Q: What about the Ki [3] of the same molecule?
A: 2500 µM
